# From patent US10351500B2, “Method of using of dihydro-resveratrol or its stilbenoid derivatives and/or chemical variants as antimicrobial agents” (Hong Kong Baptist University, priority 2015, dated 2019)
# Where two headings read alike, the source gives them in different places.
# Columns and labels:
# Trichophyton rubrum = assay: anti-fungal growth inhibition, T. rubrum; assay type: cell-based; settings: for inhibition at 25 µM / inhibition at 50 µM / inhibition at 100 µM: Trichophyton rubrum, 168 h; for inhibition at 25 µM: read-out: Inhibition rate (25 μM); for inhibition at 50 µM: read-out: Inhibition rate (50 μM); for inhibition at 100 µM: read-out: Inhibition rate (100 μM)
# Method: (§1) Evaluation of anti-fungal activity. In a single well of the 96-well microplate, 10 μL of the testing compound is added into 190 μL of growth medium (Difco™ YM) containing an overnight culture of Trichophyton rubrum or Trichophyton mentagrophytes at a density of approximately 5×10^5 CFU. The testing compounds include dihydro-resveratrol and DR1 to DR11. Wells incubated with 10 μL 0.5% DMSO only (i.e. no testing compound) are served as the experimental control of fungal growth whilst those incubated with growth medium only (i.e. no fungi) are served as the negative control. […] The percentage of growth inhibition of T. mentagrophytes by the different concentrations of testing compounds is shown in Table 10 whilst the percentage of growth inhibition of T. rubrum is shown in Table 11. The images of T. mentagrophytes culture are captured post treatment of dihydro-resveratrol (100 μM) and DR8 (100 μM) when compared to the growth of experimental control and negative control (FIG. 30).
# Streptococcus sobrinus = assay: anti-bacterial growth inhibition, S. sobrinus; assay type: cell-based; settings: for inhibition at 25 µM / inhibition at 50 µM / inhibition at 100 µM: Streptococcus sobrinus; for inhibition at 25 µM: read-out: Inhibition rate (25 μM); for inhibition at 50 µM: read-out: Inhibition rate (50 μM); for inhibition at 100 µM: read-out: Inhibition rate (100 μM)
# Method: (§2) Evaluation of anti-bacterial activity. In a single well of the 96-well microplate, 10 μL of the testing compound is added into 190 μL of growth medium growth medium (BBL™ Brain Heart Infusion) containing an overnight culture of Streptococcus mutans or Streptococcus sobrinus at a density of approximately 5×10^5 CFU. The testing compounds include dihydro-resveratrol and DR1 to DR11. Wells incubated with 10 μL 0.5% DMSO only (i.e. no testing compound) are served as the experimental control of bacterial growth whilst those incubated with growth medium only (i.e. no bacteria) are served as the negative control. […] The percentage of growth inhibition of S. mutans by the different concentrations of testing compounds is shown in Table 12 whereas the percentage of growth inhibition of S. sobrinus is shown in Table 13. The images of S. mutans culture are captured post treatment of dihydro-resveratrol (100 μM) and DR8 (100 μM) when compared to the growth of experimental control and negative control (FIG. 31).
# [1] = ABTS radical decolorization assay (antioxidant capacity); assay type: biochemical; settings: 15 min, 734 nm
# [2] = test system: Trichophyton mentagrophytes; assay: anti-fungal growth inhibition, T. mentagrophytes; assay type: cell-based; settings: for inhibition at 25 µM / inhibition at 50 µM / inhibition at 100 µM: Trichophyton mentagrophytes, 168 h; for inhibition at 25 µM: read-out: Inhibition rate (25 μM); for inhibition at 50 µM: read-out: Inhibition rate (50 μM); for inhibition at 100 µM: read-out: Inhibition rate (100 μM)
# Method: as §1
# Streptococcus mutans = assay: anti-bacterial growth inhibition, S. mutans; assay type: cell-based; settings: for inhibition at 25 µM / inhibition at 50 µM / inhibition at 100 µM: Streptococcus mutans; for inhibition at 25 µM: read-out: Inhibition rate (25 μM); for inhibition at 50 µM: read-out: Inhibition rate (50 μM); for inhibition at 100 µM: read-out: Inhibition rate (100 μM)
# Method: as §2
# [3] = test system: skin color at the arms of individual human subjects; assay: skin colorimeter ITA° measurement after topical stilbenoid solution; assay type: in vivo
# Method: To determine the skin color of the individual human subjects, the initial skin conditions at the arms of the individuals are tested by the skin colorimeter MPA 5 on day 0. The individual typology angle (ITA°) is calculated by the colorimeter based on the luminance (L*) and yellow-blue component (b*) values. The greater the ITA° value, the greater the skin whiteness [S. Del Bino and F. Bernerd. Variations in skin colour and the biological consequences of ultraviolet radiation exposure. British Journal of Dermatology 2013; 169 (Suppl. 3), 33-40]. In fact, skin colors are classified into 6 major divisions: very light, light, intermediate, tan, brown and dark as listed in Table 4. Two areas (2 cm×2 cm each) are selected as treated areas whereas regions surrounding the treated areas on the arms are regarded as control areas. A volume of 200 μL of the testing stilbenoids (2% by weight dissolved in ethanol) is applied to the designated area twice a day, day and night. At the end of the first week (day 7), individuals are tested with the skin colorimeter for recording the data about using the stilbenoids for 7 days. Again, at the end of the second week (day 14), individuals are tested with the skin colorimeter for recording the data about using the stilbenoids for 14 days.
# pancreatic acinar cells = assay type: cell-based; settings: rat, 24 h
# Method: Functional intact acini were dissociated from pancreatic tissue using collagenase digestion with mild shearing forces. Acini were cultured in Dulbecco's modification of Eagle's medium (GIBCO) supplemented with 5% fetal bovine serum (GIBCO), 1% penicillin-streptomycin (GIBCO) in a 5% CO2, 95% air humidified atmosphere at 37° C. […] MTT reagent was added to the cells at the end of the 24-hour treatment period. After a 3-hour reaction time, MTT products were dissolved in DMSO and absorbance at 570 nm was taken.
# [4] = T. rubrum, 25 μM, one week, 30° C., OD 510 nm
# [5] = T. rubrum, 50 μM, one week, 30° C., OD 510 nm
# [6] = T. rubrum, 100 μM, one week, 30° C., OD 510 nm
# [7] = S. sobrinus, 25 μM, 10 hours, 30° C., OD 600 nm
# [8] = S. sobrinus, 50 μM, 10 hours, 30° C., OD 600 nm
# [9] = S. sobrinus, 100 μM, 10 hours, 30° C., OD 600 nm
# [10] = T. mentagraphytes, 25 μM, one week, 30° C., OD 510 nm
# [11] = T. mentagraphytes, 50 μM, one week, 30° C., OD 510 nm
# [12] = T. mentagraphytes, 100 μM, one week, 30° C., OD 510 nm
# [13] = S. mutans, 25 μM, 10 hours, 30° C., OD 600 nm
# [14] = S. mutans, 50 μM, 10 hours, 30° C., OD 600 nm
# [15] = S. mutans, 100 μM, 10 hours, 30° C., OD 600 nm
Structure (SMILES),inhibition at 25 µM (Trichophyton rubrum; [4]) [%],inhibition at 50 µM (Trichophyton rubrum; [5]) [%],inhibition at 100 µM (Trichophyton rubrum; [6]) [%],inhibition at 25 µM (Streptococcus sobrinus; [7]) [%],inhibition at 50 µM (Streptococcus sobrinus; [8]) [%],inhibition at 100 µM (Streptococcus sobrinus; [9]) [%],"Trolox equivalent (mg), antioxidant capacity [1] [mg]","inhibition at 25 µM [2, 10] [%]","inhibition at 50 µM [2, 11] [%]","inhibition at 100 µM [2, 12] [%]",inhibition at 25 µM (Streptococcus mutans; [13]) [%],inhibition at 50 µM (Streptococcus mutans; [14]) [%],inhibition at 100 µM (Streptococcus mutans; [15]) [%],also measured
O=C(Oc1ccc(CCc2cc(OC(=O)c3ccccc3)cc(OC(=O)c3ccccc3)c2)cc1)c1ccccc1 [DR7],3.06,6.17,11.6,6.33,14.2,12.5,0,3.79,0.44,18.6,10.1,1.55,2.48,
C=CC(=O)Oc1ccc(CCc2cc(OC(=O)C=C)cc(OC(=O)C=C)c2)cc1 [DR8],78.9,77.8,77.7,22.7,43.8,79.3,15.893,83.1,80.7,78.8,17.1,17.6,68,"inhibitory effect among the testing compounds (Trichophyton rubrum; T. rubrum, one-week incubation): highest inhibitory effect; inhibitory effect among the testing compounds (Streptococcus sobrinus; S. sobrinus, 10-hour incubation): highest inhibitory effect; inhibitory effect among the testing compounds ([2]; T. mentagraphytes, one-week incubation): highest inhibitory effect; inhibitory effect among the testing compounds (Streptococcus mutans; S. mutans, 10-hour incubation): highest inhibitory effect"
O=C(Oc1ccc(CCc2cc(OC(=O)C3CCCC3)cc(OC(=O)C3CCCC3)c2)cc1)C1CCCC1 [DR9],7.05,2.57,1.5,14.3,0.13,9.87,0,2.19,14.7,25.9,0.68,6.36,8.39,
O=C(Cc1ccccc1)Oc1ccc(CCc2cc(OC(=O)Cc3ccccc3)cc(OC(=O)Cc3ccccc3)c2)cc1 [DR10],,,,,,,0,,,,,,,inhibition at 25 µM (Trichophyton rubrum): 8.53%; inhibition at 50 µM (Trichophyton rubrum): 6.36%; inhibition at 100 µM (Trichophyton rubrum): 10.7%; inhibition at 25 µM (Streptococcus sobrinus; 10 h): 13.8%; inhibition at 50 µM (Streptococcus sobrinus; 10 h): 11.3%; inhibition at 100 µM (Streptococcus sobrinus; 10 h): 15.8%; inhibition at 25 µM [2]: 3.14%; inhibition at 50 µM [2]: 12.6%; inhibition at 100 µM [2]: 20.9%; inhibition at 25 µM (Streptococcus mutans; 10 h): 3.42%; inhibition at 50 µM (Streptococcus mutans; 10 h): 3.56%; inhibition at 100 µM (Streptococcus mutans; 10 h): 2.44%
CC(C)(C)C(=O)Oc1ccc(CCc2cc(OC(=O)C(C)(C)C)cc(OC(=O)C(C)(C)C)c2)cc1 [DR11],8.1,7.58,9.54,10.5,12.6,0.18,0,13.1,13.4,9.36,5.49,6.86,4.13,
"Oc1ccc(/C=C/c2cc(O)cc(O)c2)cc1 [Trans-resveratrol, trans-resveratrol, reference compound]",6.56,11.6,21.6,6.71,1.17,2.46,,5.35,13.9,32.4,8.91,5.77,3.83,"whitening effect on skin ([3]; 2% by weight in ethanol, topical twice a day, most individuals): Overt whitening effect; ITA° measurement ([3]; Individual No. 1, day 7, 2% solution topical): 47.7 ± 1.155 °; ITA° measurement ([3]; Individual No. 1, day 14, 2% solution topical): 46.4 ± 0.548 °; ITA° measurement ([3]; Individual No. 2, day 7, 2% solution topical): 39.2 ± 2.564 °; ITA° measurement ([3]; Individual No. 2, day 14, 2% solution topical): 44.8 ± 2.871 °; ITA° measurement ([3]; Individual No. 3, day 7, 2% solution topical): 38.0 ± 1.732 °; ITA° measurement ([3]; Individual No. 3, day 14, 2% solution topical): 36.2 ± 1.789 °; ITA° measurement ([3]; Individual No. 4, day 7, 2% solution topical): 22.4 ± 1.715 °; ITA° measurement ([3]; Individual No. 4, day 14, 2% solution topical): 29.4 ± 1.342 °; ITA° measurement ([3]; Individual No. 5, day 7, 2% solution topical): 26.6 ± 1.159 °; ITA° measurement ([3]; Individual No. 5, day 14, 2% solution topical): 34.0 ± 2.168 °; ITA° measurement ([3]; Individual No. 6, day 7, 2% solution topical): 28.2 ± 2.718 °; ITA° measurement ([3]; Individual No. 6, day 14, 2% solution topical): 41.8 ± 3.372 °; ITA° measurement ([3]; Individual No. 7, day 7, 2% solution topical): 20.6 ± 1.140 °; ITA° measurement ([3]; Individual No. 7, day 14, 2% solution topical): 20.4 ± 0.578 °; ITA° measurement ([3]; Individual No. 8, day 7, 2% solution topical): 14.0 ± 1.232 °; ITA° measurement ([3]; Individual No. 8, day 14, 2% solution topical): 9.6 ± 1.342 °; ITA° measurement ([3]; Individual No. 9, day 7, 2% solution topical): −7.2 ± 1.789 °; ITA° measurement ([3]; Individual No. 9, day 14, 2% solution topical): −7.4 ± 1.140 °; cytotoxicity (MTT, mitochondrial metabolic rates) (pancreatic acinar cells): roughly 250 μM"
